Experimental data from paper PMC5347771 (Oncotarget, 2016).

Key:
TYRO-3 = target: T1, TYRO-3 (Homo sapiens, UniProt Q06418); assay: KINOMEscan competition binding (DiscoveRx); enzyme IC50 […] also measured (Reaction Biology)
T1 construct: gene TYRO3
T1 sequence (Q06418 41-890): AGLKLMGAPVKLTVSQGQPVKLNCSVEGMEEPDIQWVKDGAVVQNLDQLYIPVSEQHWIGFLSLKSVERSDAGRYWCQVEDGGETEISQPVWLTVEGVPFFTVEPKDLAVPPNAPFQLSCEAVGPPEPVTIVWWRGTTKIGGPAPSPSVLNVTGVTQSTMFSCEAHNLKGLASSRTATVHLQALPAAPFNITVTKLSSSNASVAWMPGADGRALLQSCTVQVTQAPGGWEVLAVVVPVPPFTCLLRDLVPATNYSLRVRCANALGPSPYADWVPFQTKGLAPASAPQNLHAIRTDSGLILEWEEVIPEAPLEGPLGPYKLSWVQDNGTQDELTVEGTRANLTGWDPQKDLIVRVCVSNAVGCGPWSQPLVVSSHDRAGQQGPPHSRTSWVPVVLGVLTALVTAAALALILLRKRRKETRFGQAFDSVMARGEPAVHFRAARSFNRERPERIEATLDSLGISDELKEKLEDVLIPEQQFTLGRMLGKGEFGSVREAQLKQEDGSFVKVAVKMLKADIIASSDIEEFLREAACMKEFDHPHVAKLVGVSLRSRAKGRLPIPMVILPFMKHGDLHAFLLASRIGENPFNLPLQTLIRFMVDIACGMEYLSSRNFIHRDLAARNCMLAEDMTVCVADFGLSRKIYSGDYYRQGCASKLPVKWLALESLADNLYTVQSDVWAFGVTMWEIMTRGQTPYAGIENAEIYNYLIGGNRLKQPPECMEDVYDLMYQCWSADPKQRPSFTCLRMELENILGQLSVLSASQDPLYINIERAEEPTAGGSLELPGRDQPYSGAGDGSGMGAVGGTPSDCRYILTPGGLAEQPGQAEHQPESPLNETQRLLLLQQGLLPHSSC

AXL = target: T2, AXL (Homo sapiens, UniProt P30530); assay: as above
T2 sequence (P30530 26-894): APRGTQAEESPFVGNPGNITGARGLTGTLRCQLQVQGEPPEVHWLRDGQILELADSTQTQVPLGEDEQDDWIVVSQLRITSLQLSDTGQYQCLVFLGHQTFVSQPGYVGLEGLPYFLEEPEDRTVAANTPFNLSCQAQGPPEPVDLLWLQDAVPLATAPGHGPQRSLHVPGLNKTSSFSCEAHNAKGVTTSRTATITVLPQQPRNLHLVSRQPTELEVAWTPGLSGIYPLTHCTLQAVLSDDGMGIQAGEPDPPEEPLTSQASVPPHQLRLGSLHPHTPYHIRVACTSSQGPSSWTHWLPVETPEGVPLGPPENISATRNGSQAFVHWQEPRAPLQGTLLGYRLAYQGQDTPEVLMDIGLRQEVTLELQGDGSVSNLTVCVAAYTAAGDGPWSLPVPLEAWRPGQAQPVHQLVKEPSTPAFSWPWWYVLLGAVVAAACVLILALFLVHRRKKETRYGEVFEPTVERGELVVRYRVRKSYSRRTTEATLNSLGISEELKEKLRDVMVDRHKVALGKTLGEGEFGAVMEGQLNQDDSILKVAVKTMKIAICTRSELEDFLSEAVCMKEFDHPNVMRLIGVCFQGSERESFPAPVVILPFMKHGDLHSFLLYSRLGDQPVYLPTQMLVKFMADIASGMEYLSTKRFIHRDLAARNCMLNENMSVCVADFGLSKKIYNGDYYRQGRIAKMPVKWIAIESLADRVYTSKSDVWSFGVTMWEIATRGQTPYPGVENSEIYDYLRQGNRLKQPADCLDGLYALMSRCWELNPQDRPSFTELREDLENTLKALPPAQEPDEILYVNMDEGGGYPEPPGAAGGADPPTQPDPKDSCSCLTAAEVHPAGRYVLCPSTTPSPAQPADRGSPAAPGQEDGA

## NC(=O)Nc1cc(-c2cccc(F)c2)sc1C(=O)N[C@H]1CCCNC1 [DN10764, (S)-5-(3-fluorophenyl)-N-(piperidin-3-yl)-3-ureidothiophene-2-carboxamide]
TYRO-3
  Kd: 1050 nM
AXL
  Kd: 26 nM
